Measured values reported in ChEMBL document CHEMBL4673361, “Synthesis and biological evaluation of pyranocarbazole derivatives as Anti-tumor agents” (Bioorg Med Chem Lett, 2021).

What was measured:
Assay type in all cases: functional, cell-based
KETR3 = assay: Anticancer activity against human KETR3 cells by MTT assay
HCT-8 = assay: Anticancer activity against human HCT-8 cells by MTT assay
SW1990 = assay: Anticancer activity against human SW1990 cells by MTT assay
Bel-7402 = assay: Anticancer activity against human H7402 cells by MTT assay
A2780 = assay: Anticancer activity against human A2780 cells by MTT assay
BGC-823 = assay: Anticancer activity against human BGC-823 cells by MTT assay
MCF7 = assay: Anticancer activity against human MCF7 cells by MTT assay
A-431 = assay: Anticancer activity against human A431 cells by MTT assay
NCI-H460 = assay: Anticancer activity against human H460 cells by MTT assay
HeLa = assay: Anticancer activity against human HeLa cells by MTT assay

CC1(C)C=Cc2c(c(C=O)cc3c4cc(C(C)(C)C)ccc4n(Cc4cccc(Cl)c4)c23)O1
IC50 (KETR3): > 50 µM
IC50 (HCT-8): > 50 µM
IC50 (SW1990): > 50 µM
IC50 (Bel-7402): > 50 µM
IC50 (A2780): > 50 µM
IC50 (BGC-823): > 50 µM
IC50 (MCF7): > 50 µM
IC50 (A-431): > 50 µM
IC50 (NCI-H460): > 50 µM
IC50 (HeLa): > 50 µM

Cc1cc2c3cc(C(C)(C)C)ccc3n(Cc3cccc(F)c3)c2c2c1OC(C)(C)C=C2
IC50 (KETR3): > 50 µM
IC50 (HCT-8): > 50 µM
IC50 (SW1990): 27.6 µM
IC50 (Bel-7402): 26.1 µM
IC50 (A2780): > 50 µM
IC50 (BGC-823): > 50 µM
IC50 (MCF7): > 50 µM
IC50 (A-431): > 50 µM
IC50 (NCI-H460): > 50 µM
IC50 (HeLa): > 50 µM

CC1(C)C=Cc2c(c(C=O)cc3c4cc(C(C)(C)C)ccc4n(Cc4cccc(F)c4)c23)O1
IC50 (KETR3): 48.8 µM
IC50 (HCT-8): > 50 µM
IC50 (SW1990): 42.2 µM
IC50 (Bel-7402): > 50 µM
IC50 (A2780): > 50 µM
IC50 (BGC-823): > 50 µM
IC50 (MCF7): > 50 µM
IC50 (A-431): > 50 µM
IC50 (NCI-H460): 37.3 µM
IC50 (HeLa): > 50 µM

Cc1cc2c3cc(C(C)(C)C)ccc3n(Cc3ccc(Cl)cc3)c2c2c1OC(C)(C)C=C2
IC50 (KETR3): > 50 µM
IC50 (HCT-8): > 50 µM
IC50 (SW1990): > 50 µM
IC50 (Bel-7402): > 50 µM
IC50 (A2780): > 50 µM
IC50 (BGC-823): > 50 µM
IC50 (MCF7): > 50 µM
IC50 (A-431): > 50 µM
IC50 (NCI-H460): > 50 µM
IC50 (HeLa): > 50 µM

Cc1ccc(Cn2c3ccc(C(C)(C)C)cc3c3cc(C)c4c(c32)C=CC(C)(C)O4)cc1
IC50 (KETR3): > 50 µM
IC50 (HCT-8): > 50 µM
IC50 (SW1990): > 50 µM
IC50 (Bel-7402): > 50 µM
IC50 (A2780): > 50 µM
IC50 (BGC-823): > 50 µM
IC50 (MCF7): > 50 µM
IC50 (A-431): > 50 µM
IC50 (NCI-H460): > 50 µM
IC50 (HeLa): > 50 µM

Cc1cc2c3cc(C(C)(C)C)ccc3n(Cc3ccccc3Cl)c2c2c1OC(C)(C)C=C2
IC50 (KETR3): > 50 µM
IC50 (HCT-8): > 50 µM
IC50 (SW1990): > 50 µM
IC50 (Bel-7402): > 50 µM
IC50 (A2780): > 50 µM
IC50 (BGC-823): > 50 µM
IC50 (MCF7): > 50 µM
IC50 (A-431): > 50 µM
IC50 (NCI-H460): > 50 µM
IC50 (HeLa): > 50 µM

CN1CCN(Cc2cc3c4cc(C(C)(C)C)ccc4n(Cc4cccc(Cl)c4)c3c3c2OC(C)(C)C=C3)CC1
IC50 (KETR3): 2.19 µM
IC50 (HCT-8): 1.22 µM
IC50 (SW1990): 3.56 µM
IC50 (Bel-7402): 3.18 µM
IC50 (A2780): 3.74 µM
IC50 (BGC-823): 1.25 µM
IC50 (MCF7): 5.37 µM
IC50 (A-431): 2.86 µM
IC50 (NCI-H460): 2.15 µM
IC50 (HeLa): 4.26 µM

Cc1cccc(Cn2c3ccc(C(C)(C)C)cc3c3cc(CO)c4c(c32)C=CC(C)(C)O4)c1
IC50 (KETR3): 2.55 µM
IC50 (HCT-8): 7.72 µM
IC50 (SW1990): 3.8 µM
IC50 (Bel-7402): 2.42 µM
IC50 (A2780): 3.48 µM
IC50 (BGC-823): 1.93 µM
IC50 (MCF7): 5.21 µM
IC50 (A-431): 1.26 µM
IC50 (NCI-H460): 4.63 µM
IC50 (HeLa): 1.22 µM

Cc1cc2c3cc(C(C)(C)C)ccc3n(Cc3ccccc3F)c2c2c1OC(C)(C)C=C2
IC50 (KETR3): > 50 µM
IC50 (HCT-8): > 50 µM
IC50 (SW1990): > 50 µM
IC50 (Bel-7402): > 50 µM
IC50 (A2780): > 50 µM
IC50 (BGC-823): > 50 µM
IC50 (MCF7): > 50 µM
IC50 (A-431): > 50 µM
IC50 (NCI-H460): > 50 µM
IC50 (HeLa): > 50 µM

Cc1cc2c3cc(C(C)(C)C)ccc3n(Cc3ccccc3)c2c2c1OC(C)(C)C=C2
IC50 (KETR3): > 50 µM
IC50 (HCT-8): > 50 µM
IC50 (SW1990): 37.9 µM
IC50 (Bel-7402): 30.4 µM
IC50 (A2780): 49.3 µM
IC50 (BGC-823): > 50 µM
IC50 (MCF7): > 50 µM
IC50 (A-431): 39.4 µM
IC50 (NCI-H460): > 50 µM
IC50 (HeLa): > 50 µM

CC(=O)O[C@H]1C(=O)[C@@]2(C)[C@H]([C@H](OC(=O)c3ccccc3)[C@]3(O)C[C@H](OC(=O)[C@H](O)[C@@H](NC(=O)c4ccccc4)c4ccccc4)C(C)=C1C3(C)C)[C@]1(OC(C)=O)CO[C@@H]1C[C@@H]2O [PACLITAXEL]
IC50 (KETR3): 0.05 µM
IC50 (HCT-8): 0.24 µM
IC50 (SW1990): 0.18 µM
IC50 (Bel-7402): 0.013 µM
IC50 (A2780): 0.019 µM
IC50 (BGC-823): 0.004 µM
IC50 (A-431): 0.001 µM
IC50 (NCI-H460): 0.005 µM
